Positions of bridges follow the written chain, without caps; N, C: chain ends. Residues, ends and D or L forms follow the SMILES beside them.
Columns and labels:
hiPS-CMs monolayers = assay: Contraction (impedance) of hiPS-CM monolayers (CardioExcyte 96); assay type: cell-based, human
Procedure: The results described above on the excitability alterations of hiPS-CMs indicate that BeKm-1 should also impair excitation–contraction coupling (ECC) in these cells. In spontaneously beating cardiomyocytes, the toxin should impact the contractility in a coherent manner with spontaneous APs and CaT. We investigated the contractions using the CardioExcyte 96 system. […] Coherent with the proarrhythmic properties of 2 nM of BeKm-1, both the mean SD1, the standard deviation of instantaneous contraction-to-contraction interval variability, and SD2, the continuous long-term interval variability, increased by 2- and 1.7-fold, respectively (Figure S5I).
(§1) hiPS-CMs: All experiments were performed on the human-induced pluripotent stem cell (hiPSC) clone C2a that has been previously characterized, including cardiac differentiation and electrophysiology data. Cells were expanded on stem cell-qualified matrigel-coated plates (0.05 mg/mL; BD Bioscience, Le Pont de Claix, France) and cultured in StemMACS iPS-BREW XF medium (Miltenyi Biotec, Paris, France). Cells were passaged every […] using Gentle Cell Dissociation Buffer (StemCell Technologies, Grenoble, France). Prior to differentiation, cells were cultured as a monolayer in StemMACS iPS-brew supplemented with 1 × Y-27632 Rho-associated, coiled-coil containing protein kinase (ROCK) inhibitor (StemCell Technologies, Grenoble, France). When hiPSCs reached proper confluence, they were differentiated into cardiomyocytes using previously described « Matrix sandwich » protocol. At day 20 ± 1 of differentiation, beating cardiomyocytes were manually dissected and isolated from non-beating cells. Briefly, cardiomyocytes were washed with phosphate-buffered saline (PBS) and treated with TrypLE Express (10x) (Thermo Fisher Scientific, Illkirch-Graffenstaden, France) for 5 min at 37 °C. The enzyme was inactivated by adding RPMI1640 medium containing 20% (vol/vol) KnockOut Serum Replacement (KSR) (Thermo Fisher Scientific, Illkirch-Graffenstaden, France). The supernatant was removed, and cells were suspended in RPMI1640 medium containing 20% (vol/vol) KSR and ROCK inhibitor. Then, the cells were plated on specific supports suitable for functional assessments.
The beating properties and the electrical field potentials of hiPS-CMs were evaluated with a CardioExcyte96 system. After dissociation, hiPS-CMs were seeded on NSP-96 Sensor Plates (Nanion Technologies, Munich, Germany) at a density of 40,000 viable cells per well. Sensor plates were previously coated with 10 µg/mL fibronectin for 1 h at 37 °C. The cells were maintained at 37 °C, and the medium was replaced every 2 days for 1 week. On the day of beating assessment, the whole medium was replaced 4 h prior to experiments, and cells were incubated at 37 °C onto the CardioExcyte96 system. Meanwhile, cells were monitored to ensure the full stabilization of beating parameters until BeKm-1 was tested at various concentrations ([…]). Tfall and Trise were determined as the time between 10% and 90% of contraction or relaxation, respectively. Pulse width (PWx) was determined as the time corresponding to the width of the signal at 90% of relaxation. Electric field potentials (EFPs) were recorded using CardioExcyte96 system. For both contraction and EFPs, 10 sequences of 30 s of acquisition were analyzed before and after BeKm-1 addition. The CardioExcyte system is best to analyze the kinetic parameters of the contractile properties of hiPS-CMs but has intrinsic limitations to assess properly variations in contractile force.

[1] = test system: hiPS-CMs (clone C2a, ventricular-like); assay type: cell-based, human
Procedure: Although the effect of BeKm-1 on APD90 was expected from a block of hERG channels, the other effects (i.e., membrane depolarization, reduction in AP frequency, and decrease of maximal upstroke velocity) are most likely a secondary consequence of the absence of IK1 in hiPS-CMs due to incomplete maturation level of these cells during the differentiation process (a recurrent problem in differentiating hiPS into cardiomyocytes). The 5 nM concentration of BeKm-1 was chosen to spare a fraction of the hERG channels in these cells. Therefore, we also tested a higher concentration (100 nM) in order to affect all hERG channels. […] This observation is coherent with the fact that a stronger IK1 current would be needed in hiPS-CMs to maintain a more negative membrane potential typical for CMs. […] In this technique, a current density of 2.8 pA/pF is injected in order to successfully reach an RMP value of −80 mV. […] Representative APs, paced at a constant cycling length of 700 ms with IK1, are shown before and after the application of 5 nM BeKm-1 (Figure 3A,B). […] Logically, these APs were excluded from further analysis of AP parameters. IK1 in silico injection efficiently allowed for setting a real resting membrane potential (RMP) at −80 mV in these hiPS-CMs, causing the cessation of spontaneous APs (not shown). As a result of IK1 taking the relay over IKr, there was no effect of 5 nM BeKm-1 on RMP (Figure 3C). […] The average prolongation of APD90 and variability is also detailed cell by cell (Figure S3).
as §1
Manual patch clamp: Single-cell dissociated hiPS-CMs were plated at low density on matrigel-coated 35 mm Petri dishes (Nunc from Thermo Fisher Scientific, Illkirch-Graffenstaden, France). Electrophysiological experiments were performed 12 to 14 days after dissociation. APs were recorded in the current-clamp mode, using the amphotericin-B-perforated patch-clamp technique. All experiments were conducted at 37 °C. APs were recorded either at basal state (spontaneous APs) or using the dynamic patch-clamp method to electronically mimic the expression of the inward rectifier potassium current, IK1 [23, 24]. The resting membrane potential (RMP) was set to −80 ± 5 mV by injecting 2 to 2.8 pA/pF in silico IK1 density. This level of current was set so that about 80% of the ventricular-like hiPS-CMs could reach these physiological RMP values. […]

[2] = 2 nM vs vehicle, n = 8 monolayers
[3] = 5 nM, dynamic clamp, paced every 700 ms

CC[C@H](C)[C@H](NC(=O)[C@H](CC(=O)O)NC(=O)[C@@H](NC(=O)[C@@H]1CCCN1C(=O)[C@@H](N)CCCNC(=N)N)[C@@H](C)O)C(=O)N[C@@H](CCCCN)C(=O)N[C@H]1CSSC[C@@H]2NC(=O)[C@H](CCCNC(=N)N)NC(=O)CNC(=O)[C@H](CC(N)=O)NC(=O)[C@H]([C@@H](C)O)NC(=O)[C@H](CCCCN)NC(=O)CNC(=O)[C@H](Cc3ccccc3)NC(=O)[C@H](CCCNC(=N)N)NC(=O)[C@H](CO)NC(=O)[C@H](CCCCN)NC(=O)[C@@H]3CSSC[C@@H](C(=O)N[C@@H](Cc4ccccc4)C(=O)O)NC(=O)[C@H](CC(=O)O)NC(=O)[C@H](CSSC[C@H](NC(=O)[C@H](CCC(N)=O)NC(=O)[C@H](Cc4ccc(O)cc4)NC(=O)[C@H](CO)NC(=O)[C@H](CCC(=O)O)NC(=O)[C@H](CO)NC1=O)C(=O)N[C@@H](Cc1ccccc1)C(=O)N1CCC[C@H]1C(=O)N[C@@H](C(C)C)C(=O)N3)NC(=O)[C@H](Cc1ccccc1)NC(=O)CNC(=O)[C@H](CC(N)=O)NC(=O)[C@H](C(C)C)NC2=O [BeKm-1] (H-RPTDIKCSESYQCFPVCKSRFGKTNGRCVNGFCDCF-OH; disulfide 7-28, 13-33, 17-35 (inferred); N-terminus and C-terminus assumed)
contraction amplitude (hiPS-CMs monolayers; 2 nM): not significantly different from the control
pulse width PW95 (hiPS-CMs monolayers; 2 nM): significant alteration
pulse widths PW30, PW70 and PW90 (hiPS-CMs monolayers; 2 nM): none of the pulse widths (PW) PW30, PW70, and PW90 parameters were significantly altered
interbeat interval increase (hiPS-CMs monolayers; 2 nM vs vehicle): 16.7%
slowing of relaxation phase (hiPS-CMs monolayers; 2 nM vs vehicle): 19.8%
slowing of rising phase of contraction (hiPS-CMs monolayers; 2 nM vs vehicle): 1.29 -fold
SD1 increase (instantaneous contraction-to-contraction interval variability) (hiPS-CMs monolayers; [2]): 2 -fold
SD2 increase (continuous long-term interval variability) (hiPS-CMs monolayers; [2]): 1.7 -fold
interbeat interval (hiPS-CMs monolayers; 2 nM, 37 °C, vehicle 2.03 ± 0.1 s, n = 8, mean ± SEM): 2.37 ± 0.2 s
duration of rising phase of contraction (Trise) (hiPS-CMs monolayers; 2 nM, 37 °C, vehicle 203.5 ± 11.3 ms, n = 8, mean ± SEM): 262.6 ± 16.9 ms
duration of relaxation phase (Tfall) (hiPS-CMs monolayers; 2 nM, 37 °C, vehicle 719.2 ± 45.8 ms, n = 8, mean ± SEM): 862.1 ± 82.0 ms
interbeat interval and its variability (hiPS-CMs monolayers; 2 nM, Poincaré plot): significantly increased
APD90 prolongation ([1]; 5 nM vs vehicle, average, dynamic clamp): 29%
resting membrane potential (RMP) ([1]; 5 nM, RMP set to −80 mV by IK1 injection, paced every 700 ms): no effect
APD90 ([1]; 5 nM, dynamic clamp, cycle length 700 ms, 37 °C, vehicle 121.9 ± 11.0 ms, n = 10, mean ± SEM): 156.7 ± 16.9 ms
AP overshoot [1, 3]: no significant effect
APD30 and APD50 [1, 3]: did not alter
maximal upstroke velocity [1, 3]: no significant effect
APD90 variability ([1]; 5 nM, dynamic clamp, Poincaré plot): greater APD90 variability
